From EP0791071B1, “ASSAY FOR PROLINE IMINOPEPTIDASE AND OTHER HYDROLYTIC ACTIVITIES” (LITMUS CONCEPTS, INC., priority 1994, dated 1996)
Like-named read-outs stand apart in the source and are kept apart here. Non-standard residues stand in square brackets, D forms with d. Residues, ends and D or L forms follow the SMILES beside them. *: point of attachment. Sta = CC(C)C[C@H](N)[C@@H](O)CC(=O)O; AMC = Cc1cc(=O)oc2cc(N*)ccc12; Isovaleryl = CC(C)CC(=O)*; Boc = CC(C)(C)OC(=O)*

Tests used:
[1] = tested on: Mobiluncus curtisii ATCC strain 35241 cell hydrolysis of the conjugate, L-prolyl-beta-naphthylamide; format: biochemical; parameters: key: -: no red color formation; +/-: possible red color formation; +: clearly visible red color formation; ++: extremely intense red color formation; conditions: PRO.NAM conjugate, 2 minutes incubation, read after 3 minutes, water control 2
Experimental: 30 µL cell suspension, 10 µL conjugate, PRO.NAM, and 10 µL salt solution or water were added to test tubes, and the suspension incubated for 2 minutes at room temperature. 20 µL of the suspension was removed from the incubation tubes and added to Fast Garnet GBC chromogenic indicator laminae. After 3 minutes, the Fast Garnet GBC indicator laminae were examined for a red color.

[2] = tested on: Mobiluncus curtisii ATCC strain 35241 hydrolysis of the conjugate, L-prolyl-beta-naphthylamide; format: biochemical; parameters: key: 0: no red color formation; 0.25: faintest red color detectable visually; 0.5: distinct red color; red color between 1.0 and 2.0 in intensity; 2.0: darkest red color possible in test system; conditions: 10 µL of 100 mM metal salt, PRO.NAM conjugate
Experimental: (§1) 20 µL cell suspension, 40 µL water, 10 µL salt solution, and 10 µL conjugate solutions (PRO.NAM or ARG.NAM) were added to test tubes, and mixed thoroughly. Immediately thereafter, 20 µL aliquots were removed from each tube, and added directly to Fast Garnet GBC chromogenic indicator laminae. After 5 minutes at room temperature, the Fast Garnet GBC sheets were examined for the formation of a red color.

[3] = tested on: Mobiluncus curtisii ATCC strain 35241 hydrolysis of the conjugate, L-arginyl-beta-naphthylamide (ARG.NAM); format: biochemical; conditions: pH 8.0 Tris, 1 hour at room temperature, water control 2
Experimental: (§2) 20 µL cell suspension, 50 µL water, 10 µL salt solution, 10 µL buffer, and 5 µL conjugate, ARG.NAM, were added to test tubes, and the suspension incubated for 1 hour at room temperature. 100 µL of the PDMAC chromogen reagent was added, and red color formation after 5 minutes was noted.

[4] = tested on: Mobiluncus curtisii ATCC strain 35241 hydrolysis of the conjugate, L-arginyl-beta-naphthylamide (ARG.NAM); format: biochemical; parameters: key: 0: no red color formation; 0.25: faintest red color detectable visually; 0.5: distinct red color; red color between 1.0 and 2.0 in intensity; 2.0: darkest red color possible in test system; conditions: metal salt 5 mM, pH 8.0 Tris, 1 hour at room temperature, water control 2
Experimental: as §2

[5] = tested on: Mobiluncus curtisii ATCC strain 35241 hydrolysis of the conjugate, L-arginyl-beta-naphthylamide; experiment: Manganese and zinc chlorides on hydrolysis of ARG.NAM at high and low pH, Fast Garnet GBC laminae (Experiment XIII); format: biochemical; conditions: 10 µL of 100 mM metal salt
Experimental: as §1

[6] = tested on: Mobiluncus curtisii ATCC Strain 35241; experiment: Hydrolysis of conjugates by microbial cells, PDMAC chromogen in solution (Experiment IV); format: biochemical; conditions: preparation and pH not given
Experimental: 50 µL distilled water, 25 µL buffer, and 25 µL microbial suspension were mixed. 5 µL conjugate was added, and the mixture allowed to incubate for 10 minutes at room temperature. 100 µL PDMAC was added to each incubation, and the color score noted.

[7] = tested on: Mobiluncus curtisii ATCC strain 35241 cell hydrolysis of t-boc-L-val.L-leu.L-lys.7-amino-4-methyl coumarin; experiment: Enzyme inhibitors on cell hydrolysis of t-boc.VAL.LEU.LYS.7-AMC, PDMAC chromogen (Experiment X); format: biochemical; parameters: key to TEST COLOR: -: no red color formation; +/-: possible red color formation; +: clearly visible red color formation; ++: extremely intense red color formation; conditions: for TEST COLOR: t-boc.VAL.LEU.LYS.7-AMC as the conjugate, 1.5 hours at room temperature, no inhibitor 2
Experimental: (§3) 50 µL cell suspension, 5 µL conjugate, 10 µL inhibitor, and 35 µL buffer were added to test tubes, and the suspension incubated for 1.5 hours at room temperature. 90 µL of the incubated suspension was added to 90 µL of the chromogen solution and the color formation noted.

[8] = tested on: Mobiluncus curtisii ATCC strain 35241 hydrolysis of L-prolyl-beta-naphthylamide (proline iminopeptidase activity); experiment: Enzyme inhibitors on hydrolysis of L-prolyl-beta-naphthylamide, PDMAC chromogen (Experiment VIII); format: biochemical; conditions: PRO.NAM conjugate, 1.5 hours at room temperature, water control 2
Experimental: 150 µL cell suspension, 10 µL conjugate, (PRO.NAM), 10 µL inhibitor, and 30 µL buffer were added to test tubes, and the suspension incubated for 1.5 hours at room temperature. 80 µL of the suspension was removed from the incubation tubes and added to 80 µL of the chromogen solution in a second set of tubes and the color formation noted.

[9] = tested on: Mobiluncus curtisii ATCC strain 35241 cell hydrolysis of Z-L-arg.L-arg.AFC; experiment: Enzyme inhibitors on cell hydrolysis of Z-ARG.ARG.AFC, PDMAC chromogen (Experiment X); format: biochemical; parameters: key: 0: no red color formation; 0.25: faintest red color detectable visually; 0.5: distinct red color; red color between 1.0 and 2.0 in intensity; 2.0: darkest red color possible in test system; conditions: Z-ARG.ARG.AFC as the conjugate, 1.5 hours at room temperature, water control 2
Experimental: as §3

[10] = tested on: proline iminopeptidase activity in Mobiluncus curtsii ATCC strain 35241 cells; experiment: Diazonium dye indicator laminae in test devices with PRO.NAM lamina: color with Mobiluncus curtisii suspension (Experiment III); format: biochemical, Mobiluncus curtisii ATCC strain 35241; conditions: dye indicator lamina and PRO.NAM lamina in test device; about 40 microliters cell suspension; 10 minutes at room temperature
Experimental: Chromogenic indicator laminae of Fast Garnet GBC, 15 mg; Fast Black K, 57 mg; Fast Dark Blue, Fast Bordeaux, Fast Violet, and Fast Red B, 21 mg prepared as described in P[…] and proline iminopeptidase-hydrolyzable conjugate, L-prolyl-beta-naphthylamide, (13 mg/ml) prepared as described in P[…] were manually assembled into test devices (P[…]). • 1. Tests of device performance with the reporter group, beta-naphthylamine. Approximately 40 microliters of 500 micromolar beta-naphthylamine solution was added to the manually assembled kits. After 10 minutes, color formation was noted. • 2. Test kit performance with proline iminopeptidase activity in Mobiluncus curtsii ATCC strain 35241 cells.
Approximately 40 microliters of the Mobiluncus curtisii ATCC strain 35241 suspension were added to each test kit. After 10 minutes at room temperature, the appearance of color was determined.

[11] = tested on: Mobiluncus curtisii ATCC strain 35241 proline iminopeptidase activity; experiment: Inhibition of proline iminopeptidase activity by detergents, PRO.NAM conjugate, PDMAC chromogen (Experiment VII); format: biochemical
Experimental: To one set of four test tubes were added 20 µL cell suspension, 5 µL conjugate, and 65 µL distilled water. After 10 minutes incubation at room temperature, 10 µL detergent and 90 µL chromogen solution was added and the color formation noted. To a second set of four test tubes were added 20 µL cell suspension, 5 µL conjugate, and 65 µL detergent solution. After 10 minutes incubation of these components at room temperature, 10 µL water and 90 µL chromogen solution was added and the color formation noted.

[12] = tested on: Mobiluncus curtisii ATCC strain 35241 hydrolysis of the conjugate, L-arginyl-beta-naphthylamide (ARG.NAM); format: biochemical; parameters: key: -: no red color formation; +/-: possible red color formation; +: clearly visible red color formation; ++: extremely intense red color formation; conditions: metal salt 5 mM, pH 8.0 Tris, 1 hour at room temperature, water control 2
Experimental: as §2

CrCl2
TEST COLOR ([1]; metal salt 20 mM): 2

zinc chloride [ZnCl2]
TEST COLOR ([1]; metal salt 20 mM): 2
COLOR SCORE 5 MINUTES ([2]; pH 5, without salt 1): 1
COLOR SCORE 5 MINUTES ([2]; pH 8, without salt 0.5): 0.5
TEST COLOR ([3]; metal salt 1 mM): 1
TEST COLOR [4]: 0.5
COLOR SCORE 5 MINUTES ([5]; pH 5, without salt 0): 0
COLOR SCORE 5 MINUTES ([5]; pH 8, without salt 0.5): 0

Cc1cc(=O)oc2cc(NC(=O)[C@H](CCCCN)NC(=O)[C@H](CC(C)C)NC(=O)[C@@H](NC(=O)OC(C)(C)C)C(C)C)ccc12 [T-boc.VAL. LEU.LYS.AMC, Tert-butyloxycarbonyl-L-valyl-L-leucyl.L-lysyl-7-amino-4-methyl coumarin] (Boc-Val-Leu-Lys-{AMC})
M. CURTISII PDMAC COLOR (PREP., pH) [6]: 2

[Ca+2].[Cl-].[Cl-] [CaCl2]
TEST COLOR ([1]; metal salt 20 mM): 2
TEST COLOR ([3]; metal salt 5 mM): 2

CC(C)CC(=O)N[C@H](C(=O)N[C@H](C(=O)N[C@@H](CC(C)C)[C@@H](O)CC(=O)N[C@@H](C)C(=O)N[C@@H](CC(C)C)[C@@H](O)CC(=O)O)C(C)C)C(C)C [pepstatin] (Isovaleryl-VV[Sta]A[Sta]-OH)
TEST COLOR ([7]; CONCENTRATION (Mm) 0.5): 2
TEST COLOR ([8]; inhibitor 0.5 mM): 2
TEST COLOR ([9]; CONCENTRATION (Mm) 0.5): 2

O=C(O)c1cc[c]([Hg][Cl])cc1 [PCMB, para-chloromercuribenzoate]
TEST COLOR ([8]; inhibitor 0.5 mM): 2

O=C(O)CN(CCOCCOCCN(CC(=O)O)CC(=O)O)CC(=O)O [EGTA, ethyleneglycol-bis-(beta-aminoethyl ether)-N,N,N',N'-tetraacetic acid]
TEST COLOR ([7]; CONCENTRATION (Mm) 5): 2
TEST COLOR ([8]; inhibitor 5 mM): 2
TEST COLOR ([9]; CONCENTRATION (Mm) 5): 2

MgCl2
TEST COLOR ([1]; metal salt 20 mM): 2

Cc1ccccc1N=Nc1ccc([N+]#N)c(C)c1 [Fast Garnet GBC]
color formation with Mobiluncus Curtisii [10]: red

CCN1C(=O)C=CC1=O [NEM, N-ethylmaleimide]
TEST COLOR ([7]; CONCENTRATION (Mm) 2): 2
TEST COLOR ([8]; inhibitor 0.5 mM): 2
TEST COLOR ([9]; CONCENTRATION (Mm) 2): 2

O[C@H](CS)[C@H](O)CS (racemic) [DTT, dithiothreitol]
TEST COLOR ([7]; CONCENTRATION (Mm) 1): 2
TEST COLOR ([8]; inhibitor 1 mM): 2
TEST COLOR ([9]; CONCENTRATION (Mm) 1): 2

O=S(=O)(F)Cc1ccccc1 [PMSF, phenyl methyl sulfonyl fluoride]
TEST COLOR ([7]; CONCENTRATION (Mm) 0.5): 1
inhibited activity ([7]; hydrolysis of T-boc-VAL.LEU.LYS.AMC): approximately 50%
TEST COLOR ([8]; inhibitor 2 mM): 2
TEST COLOR ([9]; CONCENTRATION (Mm) 0.5): 2

CCCCCCCCCCCCCCCCCCOS(=O)(=O)[O-].[Na+] [sodium octadecyl sulfate]
COLOR ([11]; detergent (10 µL) added after the 10 minute incubation, with the chromogen): red
COLOR ([11]; detergent among first additions, present with cells and PRO.NAM during the 10 minute incubation, red = hydrolysis, yellow = none): yellow

mercuric chloride [HgCl2]
TEST COLOR ([1]; metal salt 1 mM): 0

[Cl][Mn][Cl] [MnCl2, manganese chloride]
TEST COLOR ([1]; metal salt 20 mM): 2
COLOR SCORE 5 MINUTES ([2]; pH 5, without salt 1): 1
COLOR SCORE 5 MINUTES ([2]; pH 8, without salt 0.5): 0.5
TEST COLOR ([3]; metal salt 5 mM): 1
COLOR SCORE 5 MINUTES ([5]; pH 5, without salt 0): 0
COLOR SCORE 5 MINUTES ([5]; pH 8, without salt 0.5): 0

Cc1ccc(S(=O)(=O)N[C@@H](Cc2ccccc2)C(=O)CCl)cc1 [TPCK, N-tosyl-L-phenylalanine chloromethyl ketone]
TEST COLOR ([7]; CONCENTRATION (Mm) 0.5): 0
TEST COLOR ([8]; inhibitor 0.5 mM): 2
TEST COLOR ([9]; CONCENTRATION (Mm) 0.5): 0.5

Cc1ccc(S(=O)(=O)N[C@@H](CCCCN)C(=O)CCl)cc1 [TLCK, N-tosyl-L-lysine-chloromethyl ketone]
TEST COLOR ([7]; CONCENTRATION (Mm) 0.5): 0
TEST COLOR ([9]; CONCENTRATION (Mm) 0.5): 0.5

cupric chloride [CuCl2]
TEST COLOR ([1]; metal salt 5 mM): 0
TEST COLOR [12]: 0
TEST COLOR ([3]; metal salt 1 mM): 1
